# Patent US9365522B2, “Pyrazole amide derivative” (AMGEN INC., priority 2015, dated 2016)
# Target: T1, human RORγ-LBD (Homo sapiens, UniProt P51449)
# T1 construct: made in house; host or cells: E. coli (BL-21)
# T1 sequence (P51449 262-518): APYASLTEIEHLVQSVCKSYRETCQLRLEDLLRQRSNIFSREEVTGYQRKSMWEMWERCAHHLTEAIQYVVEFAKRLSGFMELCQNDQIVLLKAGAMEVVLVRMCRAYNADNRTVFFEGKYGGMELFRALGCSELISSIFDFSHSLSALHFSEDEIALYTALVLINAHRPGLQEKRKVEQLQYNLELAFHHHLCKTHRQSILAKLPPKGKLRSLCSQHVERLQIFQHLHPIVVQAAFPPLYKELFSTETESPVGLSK
# Experiment: ROR gamma coactivator peptide recruitment Alphascreen assay (RORγ-LBD binding to GRIP1 coactivator peptide)
# Assay type: biochemical
# Details: 5 nM human RORγ-LBD, 30 nM 7-β-hydroxycholesterol, 50 nM biotinylated GRIP1 coactivator peptide, overnight incubation at room temperature; read-out: result (pIC50, RORγ coactivator peptide recruitment Alphascreen assay) (converted)
# Method in brief: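 His/Flag-tagged human RORγ-LBD (aa 262-518, E. coli-expressed, 5 nM) with agonist 7-β-hydroxycholesterol (30 nM) and biotinylated GRIP1 LXXLL peptide (50 nM) in HEPES pH 7.4 buffer, 2.5% DMSO. Compound 1-in-2 dilutions; Alphascreen bead signal read after overnight incubation at room temperature; pIC50 calculated.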
row,IC50,Structure (SMILES)
1,0.708 nM,"Cc1cc(Cl)c(C(=O)CN(CC2(C)CCC2)C(=O)c2cnn([C@H]3CC[C@H](CC(=O)O)CC3)c2C(F)(F)F)c(Cl)c1 [Example 890, (trans-4-(4-((2-(2,6-dichloro-4-methylphenyl)-2-oxoethyl)((1-methylcyclobutyl)methyl)carbamoyl)-5-(trifluoromethyl)-1H-pyrazol-1-yl)cyclohexyl)acetic acid]"
2,9.12 nM,"Cc1cc(Cl)c(C(=O)CN(C(=O)c2cnn([C@H]3CC[C@](C)(C(=O)O)CC3)c2C(F)(F)F)C2CCC(C)(C)CC2)c(Cl)n1 [Example 732, trans-4-(4-((2-(2,4-dichloro-6-methyl-3-pyridinyl)-2-oxoethyl)(4,4-dimethylcyclohexyl)carbamoyl)-5-(trifluoromethyl)-1H-pyrazol-1-yl)-1-methylcyclohexanecarboxylic acid]"
3,3.24 nM,"CC(C)(CN(CC(=O)c1c(Cl)cncc1Cl)C(=O)c1cnn([C@H]2CC[C@](C)(C(=O)O)CC2)c1C(F)(F)F)C(F)(F)F [Example 692, trans-4-(4-((2-(3,5-dichloro-4-pyridinyl)-2-oxoethyl)(3,3,3-trifluoro-2,2-dimethylpropyl)carbamoyl)-5-(trifluoromethyl)-1H-pyrazol-1-yl)-1-methylcyclohexanecarboxylic acid]"
4,14.5 nM,"Cc1cc(Cl)c(C(=O)CN(CC(C)(C)C)C(=O)c2cnn([C@H]3CC[C@H](CC(=O)O)CC3)c2C(F)(F)F)c(Cl)n1 [Example 740, (trans-4-(4-((2-(2,4-dichloro-6-methyl-3-pyridinyl)-2-oxoethyl)(2,2-dimethylpropyl)carbamoyl)-5-(trifluoromethyl)-1H-pyrazol-1-yl)cyclohexyl)acetic acid]"
5,45.7 nM,"CC1(C)C[C@@H](CN(CC(=O)c2c(Cl)cccc2Cl)C(=O)c2cnn([C@H]3CC[C@](C)(C(=O)O)CC3)c2C(F)(F)F)O1 [Example 629, trans-4-(4-((2-(2,6-dichlorophenyl)-2-oxoethyl)(((2S)-4,4-dimethyl-2-oxetanyl)methyl)carbamoyl)-5-(trifluoromethyl)-1H-pyrazol-1-yl)-1-methylcyclohexanecarboxylic acid]"
6,4.27 nM,"COc1cc(Cl)c(C(=O)CN(C(=O)c2cnn([C@H]3CC[C@](C)(C(=O)O)CC3)c2C(F)(F)F)C2CCC(C)(C)CC2)c(Cl)c1 [Example 579, trans-4-(4-((2-(2,6-dichloro-4-methoxyphenyl)-2-oxoethyl)(4,4-dimethylcyclohexyl)carbamoyl)-5-(trifluoromethyl)-1H-pyrazol-1-yl)-1-methylcyclohexanecarboxylic acid]"
7,27.5 nM,"C[C@]1(C(=O)O)CC[C@H](n2ncc(C(=O)N(CC(=O)c3c(Cl)cncc3Cl)CC3CC3)c2C(F)(F)F)CC1 [Example 710, trans-4-(4-((cyclopropylmethyl) (2-(3,5-dichloro-4-pyridinyl)-2-oxoethyl)carbamoyl)-5-(trifluoromethyl)-1H-pyrazol-1-yl)-1-methylcyclohexanecarboxylic acid]"
8,67.6 nM,"CC1(C)CC(N(CC(=O)c2c(Cl)cncc2Cl)C(=O)c2cnn([C@H]3CC[C@](C)(C(=O)O)CC3)c2C(F)(F)F)C1 [Example 587, trans-4-(4-((2-(3,5-dichloro-4-pyridinyl)-2-oxoethyl)(3,3-dimethylcyclobutyl)carbamoyl)-5-(trifluoromethyl)-1H-pyrazol-1-yl)-1-methylcyclohexanecarboxylic acid]"
9,81.3 nM,"C[C@H]1C[C@H](n2ncc(C(=O)N(CC(=O)c3c(Cl)cncc3Cl)C[C@@H]3CCC(C)(C)O3)c2C(F)(F)F)CCC1C(=O)O (stereo in doubt) [Example 773, (1S,2S,4R)-4-(4-((2-(3,5-dichloro-4-pyridinyl)-2-oxoethyl)(((2S)-5,5-dimethyltetrahydro-2-furanyl)methyl)carbamoyl)-5-(trifluoromethyl)-1H-pyrazol-1-yl)-2-methylcyclohexanecarboxylic acid]"
10,11.5 nM,"Cc1ccccc1CCN(Cc1ccc(Cl)cc1)C(=O)c1cnn([C@H]2CC[C@H](C(=O)O)CC2)c1C(F)(F)F [Example 509, trans-4-(4-((4-chlorobenzyl)(2-(2-methylphenyl)ethyl)carbamoyl)-5-(trifluoromethyl)-1H-pyrazol-1-yl)cyclohexanecarboxylic acid]"
11,5.89 nM,"Cc1cc(Cl)c(C(=O)CN(CC2CCC(C)(C)CC2)C(=O)c2cnn([C@H]3CC[C@@H](C(=O)O)CC3)c2C(F)(F)F)c(Cl)n1 [Example 833, cis-4-(4-((2-(2,4-dichloro-6-methyl-3-pyridinyl)-2-oxoethyl)((4,4-dimethylcyclohexyl)methyl)carbamoyl)-5-(trifluoromethyl)-1H-pyrazol-1-yl)cyclohexanecarboxylic acid]"
12,5.37 nM,"Cc1cc(Cl)c(C(=O)CN(Cc2cc(F)cc(F)c2)C(=O)c2cnn([C@H]3CC[C@@](C)(C(=O)O)CC3)c2C(F)(F)F)c(Cl)n1 [Example 762, trans-4-(4-((2-(2,4-dichloro-6-methyl-3-pyridinyl)-2-oxoethyl)(3,5-difluorobenzyl)carbamoyl)-5-(trifluoromethyl)-1H-pyrazol-1-yl)-1-methylcyclohexanecarboxylic acid]"
13,33.1 nM,"Cc1[nH]c2ccccc2c1CCN(Cc1ccc(Cl)cc1)C(=O)c1cnn([C@H]2CC[C@H](C(=O)O)CC2)c1C(F)(F)F [Example 513, trans-4-(4-((4-chlorobenzyl)(2-(2-methyl-1H-indol-3-yl)ethyl)carbamoyl)-5-(trifluoromethyl)-1H-pyrazol-1-yl)cyclohexanecarboxylic acid]"
14,2.63 nM,"Cc1cc(Cl)c(C(=O)CN(CC2CCC3(CC2)CC3)C(=O)c2cnn([C@H]3CC[C@H](C(=O)O)CC3)c2C(F)(F)F)c(Cl)c1 [Example 518, trans-4-(4-((2-(2,6-dichloro-4-methylphenyl)-2-oxoethyl)(spiro[2.5]oct-6-ylmethyl)carbamoyl)-5-(trifluoromethyl)-1H-pyrazol-1-yl)cyclohexanecarboxylic acid]"
